Where a name gives a salt, the structure may show the parent alone.
Experiments:
aromatase = molecular target: T1, aromatase (Rattus norvegicus, UniProt P22443); test: Aromatase inhibition in the rat ovarian microsome assay; assay type: biochemical; conditions: rat ovarian microsomes; substrate (androstenedione) concentration 0.1 μM
T1 construct: ovarian microsomes are obtained from rats treated with pregnant mares serum gonadotropin; from tissue; host or cells: ovary microsomes from rats treated with pregnant mares serum gonadotropin
T1 sequence (P22443 1-508): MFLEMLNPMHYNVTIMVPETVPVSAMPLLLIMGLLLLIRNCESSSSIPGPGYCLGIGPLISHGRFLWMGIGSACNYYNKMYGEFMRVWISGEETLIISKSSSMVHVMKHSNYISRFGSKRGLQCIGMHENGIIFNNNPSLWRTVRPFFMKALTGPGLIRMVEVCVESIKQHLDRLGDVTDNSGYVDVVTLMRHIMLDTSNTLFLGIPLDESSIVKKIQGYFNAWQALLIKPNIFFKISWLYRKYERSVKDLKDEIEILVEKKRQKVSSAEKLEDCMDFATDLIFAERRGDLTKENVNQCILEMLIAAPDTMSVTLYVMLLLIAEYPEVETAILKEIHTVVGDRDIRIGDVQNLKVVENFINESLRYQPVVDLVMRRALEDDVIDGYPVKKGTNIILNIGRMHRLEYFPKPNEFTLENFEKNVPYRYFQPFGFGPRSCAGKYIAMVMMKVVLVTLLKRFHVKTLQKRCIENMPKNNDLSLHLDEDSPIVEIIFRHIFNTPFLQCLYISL
Description: In this test system, ovarian microsomes are obtained from rats treated with pregnant mares serum gonadotropin. Test compounds are added to reaction vials containing 0.1 μM 4-androstene-3,17-dione, 100,000 dpm 1,2[^3 H]-androstenedione, the microsomes and a NADPH generating system. The concentrations of the inhibitors tested ranged between 0.005 and 10 μM.

breast cancer = conditions: known aromatase inhibitors; cited from earlier work

SMILES | EC50 (aromatase) | effect in treatment of breast cancer (breast cancer)
Clc1ccc(C(c2ccc(Cl)cc2)c2cc[nH]n2)cc1 [3-[Bis(4-chlorophenyl)methyl]-1H-pyrazole hydrochloride] | 170 nM | –
CCC1(c2ccc(N)cc2)CCC(=O)NC1=O (stereo not shown) [aminoglutethimide] | – | beneficial effect in treatment of breast cancer
Clc1ccc(C(c2ccccc2)c2cn[nH]c2)c(Cl)c1 (stereo not shown) [4-[(2,4-Dichlorophenyl)phenylmethyl]-1H-pyrazole] | 310 nM | –
C[C@]12C=CC(=O)C=C1CC[C@@H]1[C@@H]2CC[C@]2(C)OC(=O)CC[C@@H]12 [testolactone] | – | beneficial effect in treatment of breast cancer

Source: patent publication US4609666A, “Aromatase inhibiting derivatives of α,α-bis(4-halophenyl)methyltetrazoles and triazoles” (Eli Lilly and Company, priority 1984, dated 1986)
